This passage reports IC90 results from patent US20220396565A1 (Hoffmann-La Roche Inc., priority 2020, published 2022).

Where a name gives a salt, the structure may show the parent alone. Read-outs that look alike come from different tables or passages of the source.

This test relates to Acinetobacter baumannii ATCC17961. The test can be described thus: Antimicrobial susceptibility testing: 90% growth inhibitory concentration (IC90) determination, Iso-Sensitest broth. It is filed as cell-based. An outline of the steps:
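Twofold serial dilutions (e.g. 10 to 0.02 μM final) were tested in Iso-Sensitest broth against ~5×10^(5) CFU/ml at 35±2 °C. OD600 was read every 20 min over 16 h. IC90 was derived from growth inhibition during the logarithmic phase.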

[1] abbreviates: Acinetobacter baumannii, ATCC17961, 90% growth inhibitory concentration, Acinetobacter baumannii ATCC17961, Iso-Sensitest broth, read-out: ATCC 17961 IC90.
Setting [2] is: Acinetobacter baumannii, ATCC17961, read-out: ATCC 17961 IC90.

A word on the IC90: it is the concentration at which the effect reaches the 90% level. Consider `COc1ccc(-c2cnc(C(=O)Nc3ccc(C(=O)N4CCC(C(=O)N5C[C@H]6CCN[C@H]6C5)C4)c(Cl)c3)n2C)c(F)c1F` (stereo partly drawn) [Example 71, N-[4-[3-[(3aR,6aR)-2,3,3a,4,6,6a-hexahydro-1H-pyrrolo[3,4-b]pyrrole-5-carbonyl]pyrrolidine-1-carbonyl]-3-chloro-phenyl]-5-(2,3-difluoro-4-methoxy-phenyl)-1-methyl-imidazole-2-carboxamide formate], for which the IC90 under setting [1] turned out to be 470 nM. As to `COc1ccc(-c2cnc(C(=O)Nc3ccc(C(=O)N4CCN(C(=O)CCN)CC4)c(Cl)c3)n2C)c(F)c1F` [Example 123, N-[4-[4-(3-aminopropanoyl)piperazine-1-carbonyl]-3-chloro-phenyl]-5-(2,3-difluoro-4-methoxy-phenyl)-1-methyl-imidazole-2-carboxamide formate], under setting [1], the 90% effect concentration (IC90) was found to be 40 nM. Turning to `Cn1c(-c2ccc(OC(F)F)c(F)c2F)cnc1C(=O)Nc1ccc(C(=O)N2CCN(C(=O)C[C@@H]3CCCN3)CC2)c(Cl)c1` [Example 224, (S)-N-(3-chloro-4-(4-(2-(pyrrolidin-2-yl)acetyl)piperazine-1-carbonyl)phenyl)-5-(4-(difluoromethoxy)-2,3-difluorophenyl)-1-methyl-1H-imidazole-2-carboxamide formate], the IC90 under setting [1] was determined as 30 nM. Still for that read-out and setting: next, `COc1ccc(-c2cnc(C(=O)Nc3ccc(C(=O)N4CCC(C(=O)N5CCN[C@H](CO)C5)CC4)c(Cl)c3)n2C)c(F)c1F` [Example 29, N-[3-chloro-4-[4-[(3S)-3-(hydroxymethyl)piperazine-1-carbonyl]piperidine-1-carbonyl]phenyl]-5-(2,3-difluoro-4-methoxy-phenyl)-1-methyl-imidazole-2-carboxamide]: 190 nM.

In the case of `COc1ccc(-c2cnc(C(=O)Nc3ccc(C(=O)N4CCN(C(=O)C5CCN(CC(=O)O)CC5)CC4)c(Cl)c3)n2C)c(F)c1F` [Example 288, 2-[4-[4-[2-Chloro-4-[[5-(2,3-difluoro-4-methoxy-phenyl)-1-methyl-imidazole-2-carbonyl]amino]benzoyl]piperazine-1-carbonyl]-1-piperidyl]acetic acid trifluoroacetate], the IC90 under setting [2] is 470 nM.

For `COc1ccc(-c2cnc(C(=O)Nc3ccc(C(=O)N4CCN(C(=O)N[C@H]5CNC[C@@H]5O)CC4)c(C)c3)n2C)c(F)c1F` [Example 285, 4-[4-[[5-(2,3-difluoro-4-methoxy-phenyl)-1-methyl-imidazole-2-carbonyl]amino]-2-methyl-benzoyl]-N-[(3S,4S)-4-hydroxypyrrolidin-3-yl]piperazine-1-carboxamide formate], under setting [1], the IC90 came to 100 nM. Turning to `COc1ccc(-c2cnc(C(=O)Nc3ccc(C(=O)N4CCN(C(=O)C5CNC(=O)N5)CC4)c(Cl)c3)n2C)c(F)c1F` (centres unmarked) [Example 133, N-[3-chloro-4-[4-(2-oxoimidazolidine-4-carbonyl)piperazine-1-carbonyl]phenyl]-5-(2,3-difluoro-4-methoxy-phenyl)-1-methyl-imidazole-2-carboxamide], the IC90 under setting [1] amounted to 170 nM. Still for that read-out and setting: next, `Cc1cc(NC(=O)c2ncc(-c3ccc(OCC#N)c(F)c3F)n2C)ccc1C(=O)N1CCC(C(=O)N2CCO[C@@H](CN)C2)CC1` [Example 87, (S)-N-(4-(4-(2-(aminomethyl)morpholine-4-carbonyl)piperidine-1-carbonyl)-3-methylphenyl)-5-(4-(cyanomethoxy)-2,3-difluorophenyl)-1-methyl-1H-imidazole-2-carboxamide 2,2,2-trifluoroacetate]: 120 nM; `COc1ccc(-c2cnc(C(=O)Nc3ccc(C(=O)N4CCN(C(=O)[C@@H]5CCNC[C@@H]5O)CC4)c(Cl)c3)n2C)c(F)c1F` [Example 228, N-[3-chloro-4-[4-[(3R,4R)-3-hydroxypiperidine-4-carbonyl]piperazine-1-carbonyl]phenyl]-5-(2,3-difluoro-4-methoxy-phenyl)-1-methyl-imidazole-2-carboxamide]: 180 nM; `COc1ccc(-c2cnc(C(=O)Nc3ccc(C(=O)N4CCN(C(=O)CCOCCC(N)=O)CC4)c(Cl)c3)n2C)c(F)c1F` [Example 279, N-(4-(4-(3-(3-Amino-3-oxopropoxy)propanoyl)piperazine-1-carbonyl)-3-chlorophenyl)-5-(2,3-difluoro-4-methoxyphenyl)-1-methyl-1H-imidazole-2-carboxamide]: 150 nM. With `Cn1c(-c2ccc(OC(F)F)c(F)c2F)cnc1C(=O)Nc1ccc(C(=O)N2CCC(C(=O)NC3CCNCC3)CC2)c(Cl)c1` [Example 94, 1-(2-chloro-4-(5-(4-(difluoromethoxy)-2,3-difluorophenyl)-1-methyl-1H-imidazole-2-carboxamido)benzoyl)-N-(piperidin-4-yl)piperidine-4-carboxamide formate], the 90% effect concentration (IC90) under setting [1] was determined as 40 nM. On the same count and under the same terms, in the case of `COc1ccc(-c2cnc(C(=O)Nc3ccc(C(=O)N4CCC(NC(=O)CN(C)C)CC4)c(Cl)c3)n2C)c(F)c1F` [Example 195, N-[3-chloro-4-[4-[[2-(dimethylamino)acetyl]amino]piperidine-1-carbonyl]phenyl]-5-(2,3-difluoro-4-methoxy-phenyl)-1-methyl-imidazole-2-carboxamide] it was 90 nM; in that of `COc1ccc(-c2cnc(C(=O)Nc3ccc(C(=O)N4CCN(C(=O)C5CCN(C(=O)CN(C)C)CC5)CC4)c(Cl)c3)n2C)c(F)c1F` [Example 120, N-[3-chloro-4-[4-[1-[2-(dimethylamino)acetyl]piperidine-4-carbonyl]piperazine-1-carbonyl]phenyl]-5-(2,3-difluoro-4-methoxy-phenyl)-1-methyl-imidazole-2-carboxamide], 60 nM; in that of `CCOc1ccc(-c2cnc(C(=O)Nc3ccc(C(=O)N4CCN(C(=O)CC5(O)CCNCC5)CC4)c(Cl)c3)n2C)c(F)c1F` [Example 183, N-[3-chloro-4-[4-[2-(4-hydroxy-4-piperidyl)acetyl]piperazine-1-carbonyl]phenyl]-5-(4-ethoxy-2,3-difluoro-phenyl)-1-methyl-imidazole-2-carboxamide formate], 80 nM. Still for that read-out and setting: next, `COc1ccc(-c2cnc(C(=O)Nc3ccc(C(=O)N4CCN(C(=O)CC5CNC5)CC4)c(Cl)c3)n2C)c(F)c1F` [Example 145, N-[4-[4-[2-(azetidin-3-yl)acetyl]piperazine-1-carbonyl]-3-chloro-phenyl]-5-(2,3-difluoro-4-methoxy-phenyl)-1-methyl-imidazole-2-carboxamide formate]: 40 nM; `COc1ccc(-c2cnc(C(=O)Nc3ccc(C(=O)N4CCC(C(=O)N5CC(N)C5)CC4)c(Cl)c3)n2C)c(F)c1F` [Example 33, N-[4-[4-(3-aminoazetidine-1-carbonyl)piperidine-1-carbonyl]-3-chloro-phenyl]-5-(2,3-difluoro-4-methoxy-phenyl)-1-methyl-imidazole-2-carboxamide trifluoroacetate]: 90 nM. For `Cn1c(-c2ccc(OC(F)F)c(F)c2F)cnc1C(=O)Nc1ccc(C(=O)N2CCC(C(=O)NCC3CNC3)CC2)c(Cl)c1` [Example 245, N-(Azetidin-3-ylmethyl)-1-[2-chloro-4-[[5-[4-(difluoromethoxy)-2,3-difluoro-phenyl]-1-methyl-imidazole-2-carbonyl]amino]benzoyl]piperidine-4-carboxamide trifluoroacetate], the IC90 under setting [2] amounted to 30 nM.

With `Cn1c(-c2ccc(OCC#N)c(F)c2F)cnc1C(=O)Nc1ccc(C(=O)N2CCC(C(=O)NCC(O)CN)CC2)c(Cl)c1` (centres unmarked) [Example 84, N-(3-amino-2-hydroxypropyl)-1-(2-chloro-4-(5-(4-(cyanomethoxy)-2,3-difluorophenyl)-1-methyl-1H-imidazole-2-carboxamido)benzoyl) piperidine-4-carboxamide 2,2,2-trifluoroacetate], the IC90 under setting [2] was determined as 90 nM. As to `Cn1c(-c2ccc(OCF)c(F)c2F)cnc1C(=O)Nc1ccc(C(=O)N2CCN(C(=O)C3(O)CCNCC3)CC2)c(Cl)c1` [Example 162, N-[3-chloro-4-[4-(4-hydroxypiperidine-4-carbonyl)piperazine-1-carbonyl]phenyl]-5-[2,3-difluoro-4-(fluoromethoxy)phenyl]-1-methyl-imidazole-2-carboxamide formate], the IC90 under setting [1] was found to be 30 nM. Same read-out and setting: in the case of `COc1ccc(-c2cnc(C(=O)Nc3ccc(C(=O)N4CCN(S(=O)(=O)C5CCNCC5)CC4)c(Cl)c3)n2C)c(F)c1F` [Example 216, N-(3-chloro-4-(4-(piperidin-4-ylsulfonyl)piperazine-1-carbonyl)phenyl)-5-(2,3-difluoro-4-methoxyphenyl)-1-methyl-1H-imidazole-2-carboxamide formate] it was 120 nM. Regarding “N-(azetidin-3- ylmethyl)-1-[2-chloro- 4-[[5-[4- (cyanomethoxy)-2,3- difluoro-phenyl]-1- methyl-imidazole-2- carbonyl]amino]benzoyl] piperidine-4- carboxamide trifluoroacetate [Example 264]”, the concentration for an effect of 90% (IC90) (90% growth inhibitory concentration, Acinetobacter baumannii ATCC17961, Iso-Sensitest broth, read-out: ATCC 17961 IC90) worked out at 90 nM. Consider `COc1ccc(-c2cnc(C(=O)Nc3ccc(C(=O)N4CCN(C(=O)C[C@@H]5CCNC5)CC4)c(Cl)c3)n2C)c(F)c1F` [Example 194, N-[3-chloro-4-[4-[2-[(3S)-pyrrolidin-3-yl]acetyl]piperazine-1-carbonyl]phenyl]-5-(2,3-difluoro-4-methoxy-phenyl)-1-methyl-imidazole-2-carboxamide formate], for which the IC90 under setting [1] came out at 50 nM. The same measure, in the same setting: next, `Cn1c(-c2ccc(OCF)c(F)c2F)cnc1C(=O)Nc1ccc(C(=O)N2CCN(C(=O)C3CCN(CC(N)=O)CC3)CC2)c(Cl)c1` [Example 24, N-(4-(4-(1-(2-amino-2-oxoethyl)piperidine-4-carbonyl)piperazine-1-carbonyl)-3-chlorophenyl)-5-(2,3-difluoro-4-(fluoromethoxy)phenyl)-1-methyl-1H-imidazole-2-carboxamide]: 70 nM.
